This is an account of results in US6610721B2, “Imidazo heterocyclic compounds” (Novo Nordisk A/S, priority 2000, dated 2003).

As usually defined, the melting point is the temperature of the solid-liquid transition.

SMILES strings stand for the structures. Structures can show the parent of a compound that is named as a salt.

The compound `Cl.FC(F)(F)Oc1cccc(OCC2CCc3[nH]cnc3C2)c1` (centres unmarked) displayed a melting point of 170 to 171 °C.

Turning to `N#Cc1ccc(OCC2CCCCc3[nH]cnc32)cc1` (centres unmarked) (as salt: hydrochloride) [Example 57, 4-(1,4,5,6,7,8-Hexahydrocycloheptaimidazol-4-ylmethoxy)benzonitrile, Hydrochloride], the melting point was in the range of 232 to 235 °C. `O=C(c1ccc(OCC2CCCc3[nH]cnc32)cc1)C1CC1` (centres unmarked) (as salt: hydrochloride) [Example 63, Cyclopropyl-[4-(4,5,6,7-tetrahydro-1H-benzimidazol-4-ylmethoxy)phenyl]methanone, hydrochloride] showed a melting point of 211 to 213 °C. The figure for `Cl.c1ccc(-c2cccc(OCC3CCc4[nH]cnc4C3)c2)cc1` (centres unmarked) is 165 to 167 °C; for `Cl.Clc1ccccc1OCC1CCc2[nH]cnc2C1` (centres unmarked) it is 224 to 226 °C.

`FC(F)(F)c1ccc(OCC2CCCc3[nH]cnc32)cc1` (centres unmarked) (as salt: hydrochloride) gave a melting point of 242 to 244 °C. The compound `Cl.Clc1ccccc1OCC1CCCc2[nH]cnc21` (centres unmarked) gave a melting point of 207 to 209 °C.

In turn, `COc1cc(C#N)ccc1OCC1CCCc2[nH]cnc21` (centres unmarked) (as salt: hydrochloride) registered a melting point of 193 to 195 °C. The figure for `FC(F)(F)Oc1ccc(OCC2CCCc3[nH]cnc32)cc1` (centres unmarked) (as salt: hydrochloride) [Example 58, 4-(4-Trifluoromethoxyphenoxymethyl)-4,5,6,7-tetrahydro-1H-benzimidazole, Hydrochloride] is 202 to 209 °C. `N#Cc1ccc(OCC2CCCc3[nH]cnc32)c(Cl)c1` (centres unmarked) (as salt: hydrochloride) registered a melting point of 225 to 227 °C.

Take `Cc1cc(C#N)cc(C)c1OCC1CCCc2[nH]cnc21` (centres unmarked) (as salt: hydrochloride): the melting point lay in the range of 190 to 192 °C.

For the compound `Cl.Fc1ccccc1OCC1CCc2[nH]cnc2C1` (centres unmarked), the melting point lay within 192 to 194 °C.

As for `Clc1ccc(OCC2CCCc3[nH]cnc32)cc1` (centres unmarked) (as salt: hydrochloride), the melting point fell in the range of 210 to 212 °C.

In turn, `O=C1CCCc2c(OCC3CCCc4[nH]cnc43)cccc21` (centres unmarked) (as salt: hydrochloride) had a melting point of 237 to 240 °C.
